Data from patent US20100105904A1, “UREA TYPE CINNAMIDE DERIVATIVE” (priority 2006, published 2010).

Tested on: Aβ42 production
Experiment: Quantification of Aβ peptide in neuronal culture from rat fetus brain (Aβ ELISA)
Assay type: cell-based
Conditions: 72 h; rat primary neuronal culture (cerebral cortex, embryonic day 18 Wistar rats); medium collected three days after addition of compound; Aβx-42 ELISA; read-out: Aβ42 production reducing effect IC50
Procedure: Quantification of Aβ Peptide in Neuronal Culture from Rat Fetus Brain
Primary neuronal cultures were prepared from the cerebral cortex of embryonic day 18 Wistar rats (Charles River Japan, Yokohama, Japan). Specifically, the embryos were aseptically removed from pregnant rats under ether anesthesia. The brain was isolated from the embryo and immersed in an ice-cold L-15 medium (such as Invitrogen Corp. Cat #11415-064, Carlsbad, Calif., USA, or SIGMA L1518). The cerebral cortex was collected from the isolated brain under a stereoscopic microscope. The cerebral cortex fragments collected were enzymatically treated in an enzyme solution containing 0.25% trypsin (Invitrogen Corp. Cat #15050-065, Carlsbad, Calif., USA) and 0.01% DNase (Sigma D5025, St. Louis, Mo., USA) at 37° C. for 30 minutes to disperse the cells. Here, the enzymatic reaction was stopped by adding inactivated horse serum to the solution. The enzymatically treated solution was centrifuged at 1,500 rpm for five minutes to remove the supernatant. 5 to 10 ml of a medium was added to the resulting cell mass. Neurobasal medium (Invitrogen Corp. Cat #21103-049, Carlsbad, Calif., USA) supplemented with 2% B27 supplement (Invitrogen Corp. Cat #17504-044, Carlsbad, Calif., USA), 25 μM 2-mercaptoethanol (2-ME, WAKO Cat #139-06861, Osaka, Japan), 0.5 mM L-glutamine (Invitrogen Corp. Cat #25030-081, Carlsbad, Calif., USA), and Antibiotics-Antimycotics (Invitrogen Corp. Cat #15240-062, Carlsbad, Calif., USA) was used as the medium (Neurobasal/B27/2-ME). However, the above Neurobasal medium not supplemented with 2-ME (Neurobasal/B27) was used for the assay. The cells were redispersed by mild pipetting of the cell mass to which the medium was added. The cell dispersion was filtered through a 40-μm nylon mesh (Cell Strainer, Cat #35-2340, Becton Dickinson Labware, Franklin Lakes, N.J., USA) to remove the remaining cell mass, and thus a neuronal cell suspension was obtained. The neuronal cell suspension was diluted with the medium and then plated in a volume of 100 μl/well at an initial cell density of 5×10^5 cells/cm^2 in a 96-well polystyrene culture plate pre-coated with poly-L or D-lysine (Falcon Cat #35-3075, Becton Dickinson Labware, Franklin Lakes, N.J., USA coated with poly-L-lysine using the method shown below, or BIOCOAT™ cell environments Poly-D-lysine cell ware 96-well plate, Cat #35-6461, Becton Dickinson Labware, Franklin Lakes, N.J., USA). Poly-L-lysine coating was carried out as follows. 100 μg/ml of a poly-L-lysine (SIGMA P2636, St. Louis, Mo., USA) solution was aseptically prepared with a 0.15 M borate buffer (pH 8.5). […] of the solution was added to the 96-well polystyrene culture plate and incubated at room temperature for one or more hours or at 4° C. overnight or longer. The coated 96-well polystyrene culture plate was washed with sterile water four or more times, and then dried or rinsed with, for example, sterile PBS or medium, and used for cell plating. The plated cells were cultured in the culture plate at 37° C. in 5% CO2-95% air for one day. Then, the total amount of the medium was replaced with a fresh Neurobasal™/B27/2-ME medium, and then the cells were cultured for further three days.
The drug was added to the culture plate on Day 4 of culture as follows. The total amount of the medium was removed from the wells, and 180 μl/well of Neurobasal medium not containing 2-ME and containing 2% B-27 (Neurobasal/B27) was added thereto. A solution of the test compound in dimethyl sulfoxide (hereinafter abbreviated as DMSO) was diluted with Neurobasal/B27 to a concentration 10-fold higher than the final concentration. 20 μl/well of the dilution was added to and sufficiently mixed with the medium. The final DMSO concentration was 1% or less. Only DMSO was added to the control group.
The cells were cultured for three days after addition of the compound, and the total amount of the medium was collected. The resulting medium was used as an ELISA sample. […]

| SMILES | IC50 [nM] |
| --- | --- |
| COc1cc(NC(=O)N2CCCCC2CCc2ccccc2F)ccc1-n1cnc(C)c1 (centres unmarked) [Example 16, 2-[2-(2-fluorophenyl)ethyl]piperidine-1-carboxylic acid [3-methoxy-4-(4-methyl-1H-imidazol-1-yl)phenyl]amide monotrifluoroacetate] | 1420 |
| COc1cc(NC(=O)NCCC(c2ccccc2)c2ccccc2)ccc1-n1cnc(C)c1 [Example 24, 1-(3,3-diphenylpropyl)-3-[3-methoxy-4-(4-methyl-1H-imidazol-1-yl)phenyl]urea monotrifluoroacetate] | 220 |
| COc1cc(NC(=O)NCc2ccc(Cl)c(Cl)c2)ccc1-n1cnc(C)c1 [Example 8, 1-(3,4-dichlorobenzyl)-3-[3-methoxy-4-(4-methyl-1H-imidazol-1-yl)phenyl]urea] | 1710 |
| COc1cc(NC(=O)NCCCc2ccc(C3CCCCC3)cc2)ccc1-n1cnc(C)c1 [Example 26, 1-[3-(4-cyclohexyl-phenyl)propyl]-3-[3-methoxy-4-(4-methyl-1H-imidazol-1-yl)phenyl]urea monotrifluoroacetate] | 230 |
| COc1cc(NC(=O)N[C@@H](CO)Cc2ccccc2)ccc1-n1cnc(C)c1 [Example 23, 1-((R)-1-hydroxymethyl-2-phenylethyl)-3-[3-methoxy-4-(4-methyl-1H-imidazol-1-yl)phenyl]urea] | 1050 |
| COc1cc(NC(=O)N2CCCC(c3ccccc3)C2)ccc1-n1cnc(C)c1 (centres unmarked) [Example 21, 3-phenyl-piperidine-1-carboxylic acid [3-methoxy-4-(4-methyl-1H-imidazol-1-yl)phenyl]amide monotrifluoroacetate] | 1660 |
| COc1cc(NC(=O)NCc2cc(F)c(F)c(F)c2)ccc1-n1cnc(C)c1 [Example 19, 1-[3-methoxy-4-(4-methyl-1H-imidazol-1-yl)phenyl]-3-(3,4,5-trifluorobenzyl)urea monotrifluoroacetate] | 2070 |
| COc1cc(NC(=O)NCC(c2ccccc2)c2ccccc2)ccc1-n1cnc(C)c1 [Example 25, 1-(2,2-diphenylethyl)-3-[3-methoxy-4-(4-methyl-1H-imidazol-1-yl)phenyl]urea monotrifluoroacetate] | 190 |
| COc1cc(NC(=O)NCCc2ccc(Cl)c(Cl)c2)ccc1-n1cnc(C)c1 [Example 11, 1-[2-(3,4-dichlorophenyl)ethyl]-3-[3-methoxy-4-(4-methyl-1H-imidazol-1-yl)phenyl]urea] | 970 |
| COc1cc(NC(=O)NCC2c3ccccc3-c3ccccc32)ccc1-n1ccnc1 [Example 6, 1-(9H-fluoren-9-ylmethyl)-3-[4-(1H-imidazol-1-yl)-3-methoxyphenyl]urea] | 5200 |
| COc1cc(NC(=O)NC[C@H](O)c2ccccc2)ccc1-n1cnc(C)c1 [Example 29, 1-(R)-2-hydroxy-2-phenylethyl-3-[3-methoxy-4-(4-methyl-1H-imidazol-1-yl)phenyl]urea] | 3840 |
| COc1cc(NC(=O)N[C@@H](C)c2ccc(F)cc2)ccc1-n1cnc(C)c1 [Example 10, 1-[(S)-1-(4-fluorophenyl)ethyl]-3-[3-methoxy-4-(4-methyl-1H-imidazol-1-yl)phenyl]urea] | 1220 |
| COc1cc(NC(=O)NCC2(c3ccccc3)Cc3ccccc3C2)ccc1-n1cnc(C)c1 [Example 15, 1-[3-methoxy-4-(4-methyl-1H-imidazol-1-yl)phenyl]-3-(2-phenyl-indan-2-ylmethyl)urea monotrifluoroacetate] | 160 |
| COc1cc(NC(=O)NC(Cc2ccccc2)c2ccccc2)ccc1-n1cnc(C)c1 (centres unmarked) [Example 17, 1-(1,2-diphenyl-ethyl)-[3-methoxy-4-(4-methyl-1H-imidazol-1-yl)phenyl]urea monotrifluoroacetate] | 560 |
| COc1cc(NC(=O)NCC(C)(C)c2ccccc2)ccc1-n1cnc(C)c1 [Example 27, 1-[3-methoxy-4-(4-methyl-1H-imidazol-1-yl)phenyl]-3-(2-methyl-2-phenylpropyl)urea monotrifluoroacetate] | 540 |
| COc1cc(NC(=O)NCCCc2ccccc2)ccc1-n1cnc(C)c1 [Example 18, 1-[3-methoxy-4-(4-methyl-1H-imidazol-1-yl)phenyl]-3-(3-phenylpropyl)urea monotrifluoroacetate] | 860 |
| COc1cc(NC(=O)N2CCC(c3ccccc3)CC2)ccc1-n1cnc(C)c1 [Example 20, 4-phenyl-piperidine-1-carboxylic acid [3-methoxy-4-(4-methyl-1H-imidazo1-1-yl)phenyl]amide monotrifluoroacetate] | 1610 |
